Measurements reported in US10570124B2, “Deoxycytidine kinase binding compounds” (THE REGENTS OF THE UNIVERSITY OF CALIFORNIA, priority 2016, dated 2020).
pIC50: −log10 of the molar value. Entries after “also recorded” stand apart in the source; their conditions may differ. Like-named read-outs stand apart in the source and are kept apart here.

Columns and labels:
dCK [1] = target: T1, dCK (Homo sapiens, UniProt P27707); experiment: Inhibition of [3H]-deoxycytidine (dCyd) uptake by CEM cells; type: cell-based; conditions: read-out: dCKi-IC-50
T1 construct: endogenous in cells; host or cells: CEM cells
Protocol: 50,000 CEM cells/well were added to Millipore MultiScreen GV 96 well plates. Cells were resuspended at […] and incubated for 30 minutes at 37° C. The drug dilution plate was prepared by starting with an initial drug concentration of 10 mM in DMSO, and proceeding to make 1:5 dilutions for drug. […] and mixed by pipetting 10 times before removing 10 uL for next well (1:5 serial dilutions). The media and tritiated deoxycytidine was mixed together. […] of media/probe mixture was added to each well of an Optiplate. […] from drug plate was added to each well in the Optiplate to obtain drug/media/probe mixture and mixed. […] of drug/media/probe mixture from Optiplate was added to the cell plate and incubate at 37° C. for 1 hour. The cell plate was placed on vacuum to aspirate, and then washed with ice cold PBS: […] 1×PBS 4 times. The backing of the plate was peeled off, and the plate was placed in dryer for at least 30 minutes or until dry at 37° C. […] Scintillation fluid per well was added, and the plate was sealed with clear plate seal. The plate was read on the Microbeta instrument.

[2] = system: HUKEMIA Acute Myeloid Leukemia model AM-7577; experiment: Acute myeloid leukemia study, HUKEMIA model AM-7577 in NOD/SCID mice; type: in vivo, Mus Musculus; conditions: for ILS (increase in life-span): vs vehicle group
Protocol: In this study, NOD/SCID mice were injected (i.v.) with cells from a human donor diagnosed with AML (IDH2, FLT3-ITD, DNMT3A, and CEBPA mutations identified). Tumor burden was assessed by evaluation of human CD45 positive leukemia cells using FACS. The primary end point was animal survival. Median survival time (MST) and increase in life-span (ILS) were calculated for all animals.
The animals were inoculated HUKEMIA® Model AM-7577. The vehicle and treatment injections were started on Day 9 post cell inoculation Day 10 post cell inoculation, respectively.
Weekly Monitoring: Body weight was monitored twice a week. Human leukemia cells was detected by FACS weekly by CD45.
Endpoints and/or Termination: The end points varied according to the tumor burden growth in Vehicle group. The major end point was animal survival. The survival of all animals was followed and median survival time (MST) was calculated for each group. The increase in life-span (ILS) was calculated as follows: ILS (%)=100×[(Median Survival Time of drug treated group/Median Survival Time of vehicle group)−1](%).
Statistical Analysis: Data was evaluated using one way ANOVA. All data was analyzed using Prism 5.0 and IBM SPSS Statistics 19.0. p<0.05 was considered to be statistically significant.

dCK [3] = target: dCK (Mus musculus, UniProt P43346); experiment: Inhibition of dCK activity in vivo by [18F]L-FAC PET/CT imaging; conditions: mice, IP injection, [18F]L-FAC 4 h after treatment
Protocol: [^18F]L-FAC PET/CT scans were performed as described in Shu, C.

[4] = system: p185BCR-ABL/Arf-/- pre-B ALL cells; experiment: Acute lymphoblastic leukemia (ALL) model, bioluminescence imaging; type: in vivo, NSG mice; conditions: 50 mg/kg, days 4, 6, 8, 11 after inoculation
Protocol: The efficacy of Compound 9R and (R)-DI-82 single agent therapy against short-term cultures of murine BCR-ABL (p185), Arf^−/− pre-B ALL cells (p185^BCR-ABL/Arf^−/−) was assessed. This assay was previously described in Boulos, N. et al., 2011. “Chemotherapeutic agents circumvent emergence of dasatinib-resistant BCR-ABL kinase mutations in a precise mouse model of Philadelphia chromosome-positive acute lymphoblastic leukemia, Blood, 117:3585-3595 and Nathanson, D. 2014 “Co-targeting of convergent nucleotide biosynthetic pathways for leukemia eradication” J. Exp. Med. 211(3): 473-486, all of which are incorporated herein by reference.
Bioluminescent imaging and data analysis were performed using a Xenogen IVIS-200 system and Living Image Version 3.01 software (Caliper Life Sciences). […] Total flux measurements (photons/second) were quantified over the whole-animal body or a contour drawn around a target organ. […]
To evaluate the efficacy of Compound 9R and (R)-DI-82 in an in vivo B-ALL model, firefly luciferase—marked p185^BCR-ABL/Arf^−/− cells were inoculated intravenously in NSG mice. 4 days, 6 days, 8 days and 11 days after inoculation, bioluminescence imaging (BLI) of firefly luciferase-marked p185^BCR-ABL/Arf^−/− ALL-bearing NSG mice treated with 50 mg/kg compound 9R or 50 mg/kg (R)-DI-82 were measured. […]

T1 sequence (P27707 whole entry): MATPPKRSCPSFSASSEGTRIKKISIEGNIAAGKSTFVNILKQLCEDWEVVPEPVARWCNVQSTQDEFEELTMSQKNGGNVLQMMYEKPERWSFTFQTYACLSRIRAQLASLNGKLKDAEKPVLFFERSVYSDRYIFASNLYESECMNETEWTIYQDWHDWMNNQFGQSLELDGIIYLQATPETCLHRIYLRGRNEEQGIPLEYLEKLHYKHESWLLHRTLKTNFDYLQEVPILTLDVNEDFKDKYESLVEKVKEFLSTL
Sequence of dCK (Mus musculus, UniProt P43346) (P43346 whole entry): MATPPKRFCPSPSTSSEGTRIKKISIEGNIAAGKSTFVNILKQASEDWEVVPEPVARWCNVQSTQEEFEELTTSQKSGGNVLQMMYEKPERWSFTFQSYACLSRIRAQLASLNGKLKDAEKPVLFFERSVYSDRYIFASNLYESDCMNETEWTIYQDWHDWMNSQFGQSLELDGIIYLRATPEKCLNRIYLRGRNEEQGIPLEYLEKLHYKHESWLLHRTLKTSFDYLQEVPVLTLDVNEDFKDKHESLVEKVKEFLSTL

SMILES	pIC50 (dCK [1]; [3H]-dCyd uptake)	pIC50 (dCK [1]; [3H]dC uptake, 0 mg/mL BSA)	pIC50 (dCK [1]; [3H]dC uptake, 25 mg/mL BSA)	pIC50 (dCK [1]; [3H]dC uptake, 50 mg/mL BSA)	tumor burden growth (human CD45 by FACS) ([2]; 25 mg/Kg)	Median survival ([2]; 25 mg/kg po BID x 46 days)	ILS (increase in life-span) ([2]; 25 mg/kg po BID)	tumor burden growth (human CD45 by FACS) ([2]; 50 mg/Kg)	Median survival ([2]; 50 mg/kg po BID x 46 days)	ILS (increase in life-span) ([2]; 50 mg/kg po BID)	tumor burden growth (human CD45 by FACS) ([2]; 100 mg/Kg)	Median survival ([2]; 100 mg/kg po BID x 46 days)	ILS (increase in life-span) ([2]; 100 mg/kg po BID)	tumor burden in peripheral blood vs vehicle ([2]; 100 mg/kg, day 44 post cell inoculation, p=0.021)	inhibition of dCK activity in vivo ([18F]L-FAC PET/CT) (dCK [3])	efficacy in the p185BCR-ABL/Arf-/- ALL model (bioluminescence) [4]
COc1ccc(-c2nc([C@H](C)Sc3nc(N)cc(N)n3)c(C)s2)cc1OCCN1CCOCC1 [Compound 9S, (S)-2-(1-(2-(4-methoxy-3-(2-morpholinoethoxy)phenyl)-5-methylthiazol-4-yl)ethylthio)pyrimidine-4,6-diamine]	6.33	–	–	–	–	–	–	–	–	–	–	–	–	–	–	–
COc1ccc(-c2nc([C@@H](C)Sc3nc(N)cc(N)n3)c(C)s2)cc1OCCN1CCOCC1 [Compound 9R, (R)-2-(1-(2-(4-methoxy-3-(2-morpholinoethoxy)phenyl)-5-methylthiazol-4-yl)ethylthio)pyrimidine-4,6-diamine]	8.50	8.39	8.16	7.94	significant increase post cells inoculation day 29	49 days	0%	slowly increased during Day 29 to Day 44 post cell inoculation	54 days	10%	slowly increased during Day 29 to Day 44 post cell inoculation	54 days	10%	significant antitumor effects	strongly inhibit dCK activity in vivo; also recorded: greater inhibition of dCK	–
COc1ccc(-c2nc([C@@H](C)Sc3nc(N)cc(N)n3)c(C)s2)cc1OCCNS(C)(=O)=O [(R)-DI-82, (R)—N-(2-(5-(4-(1-(4,6-diaminopyrimidin-2-ylthio)ethyl)-5-methylthiazol-2-yl)-2-methoxyphenoxy)ethyl)methanesulfonamide]	–	–	–	–	–	–	–	–	–	–	–	–	–	–	–	show efficacy
